Results on two molecules are retold here after US20240390484A1 (priority 2022, published 2024).

Some results are limits rather than exact numbers.

Series [1] can be described thus: Particle size and polydispersity index (PDI) by Dynamic Light Scattering. As to conditions: for “Ready-to-use” S2P RNA formulation PDI / “Ready-to-use” S2P RNA formulation Size: 48/40.5/10/1.5 mol %, blank-LNP added to lyophilized S2P RNA (55 ug/vial), N/P 7; for Blank-LNP PDI / Blank-LNP Size: 48/40.5/10/1.5 mol % ionizable lipid/cholesterol/DSPC/DMG-PEG. The series is classed as physicochemical. Here is the method: (§1) Lipid nanoparticles (LNPs) were formed or formulated by rapid mixing of an ethanol phase and an aqueous phase using a microfluidic device. The aqueous phase included a 50 mM citrate buffer (pH 5.5). The ethanol phase included an ionizable lipid (as described herein), cholesterol (Jiangsu Southeast Nanomaterials), 1,2-diastearoyl-sn-glycero-3-phosphocholine (DSPC) (Jiangsu Southeast Nanomaterials) and 1,2-dimyristoyl-rac-glycero-3-methoxypolyethylene glycol-2000 (DMG-PEG2000) (SINOPEG). A series of ionizable lipids were evaluated. These four lipid components were mixed at defined molar ratios in ethanol, for instance, at a molar ratio of 48:40.5:10:1.5 (ionizable lipid:cholesterol:DSPC:DMG-PEG2000). The generated LNP particles were purified in citrate buffer (containing sucrose) and characterized with respect to particle size, polydispersity index (PDI) and ionizable lipid concentration. The LNP solution was then diluted to the target concentration and stored at 2-8° C.
(§2) In the case of a filled LNP, for example, an LNP-encapsulated S-2P RNA liquid drug product, the preparation protocol is essentially the same, except that it was an aqueous solution of S-2P RNA in citrate buffer pH 5-6 that constitutes the aqueous phase for LNP formation. The LNP-encapsulated RNA formulation is also referred to as “RNA-LNP” in this disclosure. Regarding characterization, particle size and polydispersity index (PDI) of the RNA-LNP were determined by Dynamic Light Scattering (DLS); RNA encapsulation efficiency and concentration were determined by means of Ribogreen® assay and RNA purity was determined by agarose gel electrophoresis.
(§3) The “ready-to-use” RNA product was manufactured by transferring a predetermined amount of already formed LNP in solution to a sealed vial containing the lyophilized RNA composition, followed by mixing at room temperature. The amount of LNP added per vial (e.g., 30-100 μg RNA per vial) was determined based on the molar ionizable lipid:RNA (N/P) molar ratio of 7. In this disclosure, “ready-to-use” S-2P RNA formulations (also referred to as “LNP(S-2P RNA)”) containing 30-100 μg/mL S-2P RNA were prepared, and then characterized with respect to particle size, polydispersity index, as well as RNA concentration, complexation efficiency, and purity using the same methods as described above in Example 3.

Series [2] in a line: RNA encapsulation/complexation efficiency by Ribogreen assay. Format: physicochemical. As to conditions: 48/40.5/10/1.5 mol %; blank-LNP added to lyophilized S2P RNA (55 ug/vial), N/P 7. Here is the method: as §2, §3
Another series has as its system BHK-21 cells. Format: cell-based. As to conditions: ready-to-use S2P RNA, 4 μg, 48 hours post transfection; 48/40.5/10/1.5 mol %.
In another series the test system is Vero E6 cells. Format: cell-based. As to conditions: ready-to-use S2P RNA, 4 μg, 48 hours post transfection; 48/40.5/10/1.5 mol %.
The nature of series [3]: Stability of blank-LNP at 2-8° C. (particle size, PDI). The series is classed as physicochemical. Particulars: blank-LNP 48/40.5/10/1.5 mol %. How it is done: as §1
Each generated blank-LNP formulation was added to and mixed with lyophilized S2P RNA, altogether yielding a series of “ready-to-use” S2P RNA test items containing the different ionizable lipids. The pharmaceutical characteristics (Table 3) and in vitro transfection efficiency (Table 4) of these “ready-to-use” RNA test items were compared head-to-head. In parallel, the stability profiles of these […] blank-LNP formulations (i.e. without RNA complexation) were assessed at 2-8° C. (see Table 5).
The generated fourteen blank-LNP formulations were characterized in terms of particle size and PDI, both at the end of manufacturing (T=0) and 8-week storage at 2-8° C. […] (defined as size increase ≤20 nm in 8 weeks), namely DMG-PEG2000 between at least 1-4 mol %, DSPC between at least 5-20 mol %, ionizable lipid between at least 30-70 mol % and cholesterol between at least 18.5-58.5 mol %.

Take `CCCCCCCCCCC(CCCCCCCCCC)C(=O)OCCCCCCOc1ccc(OCCCCCCOC(=O)C(CCCCCCCCCC)CCCCCCCCCC)c(COC(=O)CCCN(C)C)c1` [Lipid #8]: in series [1], the ““Ready-to-use” S2P RNA formulation PDI” value is recorded as 0.11, the ““Ready-to-use” S2P RNA formulation Size” value amounted to 130 nm, the “Blank-LNP PDI” value turned out to be 0.13 and the “Blank-LNP Size” value came to 86 nm. In addition, in series [2], the ““Ready-to-use” S2P RNA formulation RNA complexation efficiency” value worked out at 34%. The “RBD expression in BHK-21 cells” value in the series with BHK-21 cells is “<LOD”. Moreover, the “RBD expression in Vero E6 cells” value in the series on Vero E6 cells was “<LOD”. In series [3] (1 month), the “PDI, T = 1 month” value was determined as 0.17 and the “Size, T = 1 month” value amounted to 90 nm. For the same molecule, in series [3], the “Change in size (nm) vs. T0, T = 2 weeks” value is given as −3 nm; the “PDI, T = 2 weeks” value was 0.07; the “Size, T = 2 weeks” value is 83 nm; the “PDI, T = 0” value came to 0.13. The “Size, T = 0” value in series [3] is listed as 86 nm.

With `CCCCCCOCCC/C=C/COC(=O)CCCCCCCCC(CCCCCCCCC(=O)OC/C=C/CCCOCCCCCC)OC(=O)CCCN(C)C` [Lipid #11], in series [1], the ““Ready-to-use” S2P RNA formulation PDI” value is listed as 0.11, the ““Ready-to-use” S2P RNA formulation Size” value amounted to 266 nm, the “Blank-LNP PDI” value came out at 0.09 and the “Blank-LNP Size” value worked out at 165 nm. In addition, the ““Ready-to-use” S2P RNA formulation RNA complexation efficiency” value in series [2] was determined as 34%. Also, the “RBD expression in BHK-21 cells” value with BHK-21 cells was 0.52 ng/mL. For the same molecule, in the series with Vero E6 cells, the “RBD expression in Vero E6 cells” value came out at 0.20 ng/mL. In series [3] (1 month), the “Change in size (nm) vs. T0, T = 1 month” value is listed as “+59 nm”; the “PDI, T = 1 month” value is 0.06; the “Size, T = 1 month” value is reported as 224 nm. Further, in series [3], the “Change in size (nm) vs. T0, T = 2 weeks” value is given as “+42 nm”; the “PDI, T = 2 weeks” value is reported as 0.04; the “Size, T = 2 weeks” value is on record as 207 nm; the “PDI, T = 0” value is listed as 0.09. In addition, in series [3], the “Size, T = 0” value is on record as 165 nm.
